Experimental data as given in patent US4711898A, “4-quinolone derivatives having anti-inflammatory, anti-allergic, antitussive, expectorant and antithrombotic activity” (Nippon Shinyaku Co., Ltd., priority 1982, dated 1987).

Tests used:
[1] = system: SRS-A (slow reacting substance of anaphylaxis) contraction of ileum; experiment: Anti-SRS-A action using ileus of guinea pigs; assay type: cell-based, Hartley strain male guinea pigs; details: 5 min, guinea pig ileum, SRS-A 20 units, compound five minutes before; for inhibition at 1 µM: Cavia porcellus, 1/1000 mM, read-out: 1/1000 mM SRS-A Inhibition Ratio %; for 1/1000 mM SRS-A Inhibition Ratio %: Na salt, 1 µM
Description: (§1) The compounds of the present invention have been evaluated for their anti-allergenic action by passive cutaneous anaphylatic assay (PCA) in rats and by measuring the anti-SRS-A action using ileus of guinea pigs.
Anti-SRS-A action (An anti-acton against slow reacting substance of anaphylaxis).
Hartley strain male guinea pigs (300 to 350 grams body weight) are killed and 1.0 to 1.5 cm of ileum is immeidiately excised from ileocecal parts and is suspended in 10 ml of Tyrode solution (95% 02 -5% CO2 saturation) containing 10^-7 g/ml of atropine and 10^-6 g/ml of pyrilamine. SRS-A (20 units) (the amount of SRS-A showing the same contradiction as 5 ng of histamine is defined as 1 unit) prepared by using sensitized guinea pig lung is given to cause contraction there. Then antagonistic action of test compounds treated five minutes ago against the contraction is measured and recorded via isotonic transducer. [formula] in which A' is a height of contraction of SRS-A+test compound and A is that of SRS-A.

[2] = system: passive cutaneous anaphylaxis (DNP-As homocytotropic antiserum); experiment: passive cutaneous anaphylatic assay (PCA) in rats; assay type: in vivo, Wistar strain rats; details: 10 mg/kg orally, one hour before antigen; for inhibition in vivo at 10 mg/kg: Rattus norvegicus, po, 1 h, read-out: PCA Inhibition Ratio %; for PCA Inhibition Ratio %: Na salt
Description: as §1
(i) Antiserum abundant in homocytotropic antibody is prepared by the same method as Tada and Okumura did (cf. Journal of Immunology, vol. 106, page 1002, 1971). Thus, 1 mg (calculated as an amount of protein) of DNP-As (2,4-dinitrophenylcoupled ascaris extract) prepared by methods of Strejan and Campbell (Journal of Immunology, vol. 98, p. 893, 1967) and of Eisen (Journal of Amer. Chem. Soc., vol. 75, p 4593, 1953) and 1×10^10pertussis vaccine are administered to each paw of Wistar strain rats (180 to 200 grams body weights) by dividing the dose by four. Five days later, 0.5 mg of DNP-As is administered into muscle of back. Eight days later from the initial immunization, blood is taken from discending aorta under anesthetizing with ether, the resulting serum is stored at -80° and is melted before use.
(ii) Effect of tested compounds is investigated as follows:
Anti-serum obtained by th method (i) is diluted with physiological saline solution double by double successively and 0.05 ml of each diluted solution is administered into the back of Wistar strain rats (140 to 160 grams body weight) intradermally. After 72 hours, a solution of 2 mg (calculated as protein) of DNP-As and 2.5 mg of Evans Blue dissolved in 1 ml of physiological saline solution is administered intraveously at a dose of 5 ml/kg. After 30 minutes from the antigen solution administration, the animals are killed and the diameters of blue spots which appeared at the place where antiserum was administered were measured. The PCA test is conducted by the same method as already described using a diluted solutions of antiserum which always show 10 mm or more of spot diameters and the effect of the test compounds is judged. Thus antiserum diluted solutions are administered into two places in the back. Test compounds are administered orally at the dose of 10 mg/kg one hour before administration of the antigen solution. From the skin of reacted parts of killed animals, leaked or emitted dyestuff is extracted and the amount of the dyestuff is measured. The inhibition ratio is calculated by the following expression: [formula] in which A' is an amount of dyestuff in the group treated with the test compounds and A is that in the control group.

CCOC(=O)c1cccc2c(=O)cc(-c3ccccc3F)[nH]c12 [2-Fluoro, Ethyl]
inhibition at 1 µM [1]: 33.3%
inhibition in vivo at 10 mg/kg [2]: 28.5%

CCOC(=O)c1cccc2c(=O)cc(-c3ccc(OC)cc3)[nH]c12 [4-Methoxy, Ethyl]
inhibition at 1 µM [1]: 20.3%
inhibition in vivo at 10 mg/kg [2]: 3.2%

O=C(O)c1ccc2c(c1)C(=O)CC(c1ccccc1)=N2 [Example 2, 2-Phenyl-4-quinolone-6-carboxylic acid]
inhibition at 1 µM [1]: 23.9%
inhibition in vivo at 10 mg/kg [2]: 22.5%

O=C(O)c1ccc2[nH]c(-c3ccccc3)cc(=O)c2c1 [Example 3, Sodium 2-phenyl-4-quinolone-6-carboxylate]
inhibition at 1 µM [1]: 85%
inhibition in vivo at 10 mg/kg [2]: 27.9%

CC(C)OC(=O)c1ccc2c(c1)C(=O)CC(c1ccccc1)=N2 [Example 5, Isopropyl 2-phenyl-4-quinolone-6-carboxylate]
inhibition at 1 µM [1]: 36.7%
inhibition in vivo at 10 mg/kg [2]: 26.2%

O=C(OCCc1ccccc1)c1ccc2c(c1)C(=O)CC(c1ccccc1)=N2 [Example 6, Phenethyl 2-phenyl-4-quinolone-6-carboxylate]
inhibition at 1 µM [1]: 22.8%
inhibition in vivo at 10 mg/kg [2]: 24.3%

COC(=O)c1ccc2c(c1)c(=O)cc(-c1ccccc1)n2C [Example 7, Methyl 1-methyl-2-phenyl-4-quinolone-6-carboxylate]
inhibition at 1 µM [1]: 100%
inhibition in vivo at 10 mg/kg [2]: 21.3%

Cn1c(-c2ccccc2)cc(=O)c2cc(C(=O)O)ccc21 [Example 8, 1-Methyl-2-phenyl-4-quinolone-6-carboxylic acid]
inhibition at 1 µM [1]: 22%
inhibition in vivo at 10 mg/kg [2]: 16.2%

COC(=O)c1ccc2c(c1)C(=O)C(C)C(c1ccccc1)=N2 (centres unmarked) [Example 9, Methyl 3-methyl-2-phenyl-4-quinolone-6-carboxylate]
inhibition at 1 µM [1]: 54.8%
inhibition in vivo at 10 mg/kg [2]: 26.8%

Cc1c(-c2ccccc2)[nH]c2ccc(C(=O)O)cc2c1=O [Example 10]
inhibition at 1 µM [1]: 21%
inhibition in vivo at 10 mg/kg [2]: 22.4%

C=CCc1c(-c2ccccc2)[nH]c2ccc(C(=O)OC)cc2c1=O [Example 11]
inhibition at 1 µM [1]: 37.5%
inhibition in vivo at 10 mg/kg [2]: 20.1%

C=CCc1c(-c2ccccc2)[nH]c2ccc(C(=O)O)cc2c1=O [Example 12]
inhibition at 1 µM [1]: 22.3%
inhibition in vivo at 10 mg/kg [2]: 17.5%

CCn1c(-c2ccccc2)cc(=O)c2cc(C(=O)OC)ccc21 [Example 13]
inhibition at 1 µM [1]: 25.4%
inhibition in vivo at 10 mg/kg [2]: 18.9%

CCn1c(-c2ccccc2)cc(=O)c2cc(C(=O)O)ccc21 [Example 14]
inhibition at 1 µM [1]: 28.9%
inhibition in vivo at 10 mg/kg [2]: 16.4%

CCCn1c(-c2ccccc2)cc(=O)c2cc(C(=O)OC)ccc21 [Example 15]
inhibition at 1 µM [1]: 65.3%
inhibition in vivo at 10 mg/kg [2]: 19.7%

CCCn1c(-c2ccccc2)cc(=O)c2cc(C(=O)O)ccc21 [Example 16]
inhibition at 1 µM [1]: 19.7%
inhibition in vivo at 10 mg/kg [2]: 23.4%

C=CCn1c(-c2ccccc2)cc(=O)c2cc(C(=O)OC)ccc21 [Example 17]
inhibition at 1 µM [1]: 22.7%
inhibition in vivo at 10 mg/kg [2]: 20.4%

C=CCn1c(-c2ccccc2)cc(=O)c2cc(C(=O)O)ccc21 [Example 18]
inhibition at 1 µM [1]: 24.3%
inhibition in vivo at 10 mg/kg [2]: 26.5%

CCCCCCn1c(-c2ccccc2)cc(=O)c2cc(C(=O)OC)ccc21 [Example 19]
inhibition at 1 µM [1]: 27.5%
inhibition in vivo at 10 mg/kg [2]: 27%

O=C(O)c1ccc2[nH]c(-c3ccccc3Cl)cc(=O)c2c1 [Example 23]
1/1000 mM SRS-A Inhibition Ratio % ([1]; listed as 2-Chloro): 24.9%
PCA Inhibition Ratio % ([2]; listed as 2-Chloro): 18.7%

COC(=O)c1ccc2[nH]c(-c3ccccc3Br)cc(=O)c2c1 [Example 24]
inhibition at 1 µM [1]: 55.8%
inhibition in vivo at 10 mg/kg [2]: 23.4%

O=C(O)c1ccc2[nH]c(-c3ccccc3Br)cc(=O)c2c1 [Example 25]
inhibition at 1 µM [1]: 25.7%
inhibition in vivo at 10 mg/kg [2]: 17.2%

COC(=O)c1ccc2[nH]c(-c3ccccc3F)cc(=O)c2c1 [Example 26]
inhibition at 1 µM [1]: 38.5%
inhibition in vivo at 10 mg/kg [2]: 20.6%

O=C(O)c1ccc2[nH]c(-c3ccccc3F)cc(=O)c2c1 [Example 27]
inhibition at 1 µM [1]: 23.4%
inhibition in vivo at 10 mg/kg [2]: 25.6%

O=C(O)c1ccc2[nH]c(-c3cccc(Cl)c3)cc(=O)c2c1 [Example 30]
inhibition at 1 µM [1]: 24.5%
inhibition in vivo at 10 mg/kg [2]: 43%

O=C(O)c1ccc2[nH]c(-c3cccc(Cl)c3)cc(=O)c2c1 [Example 31]
1/1000 mM SRS-A Inhibition Ratio % ([1]; listed as 3-Chloro): 25.5%
PCA Inhibition Ratio % ([2]; listed as 3-Chloro): 24.4%

COC(=O)c1ccc2[nH]c(-c3ccc(Cl)cc3)cc(=O)c2c1 [Example 32]
inhibition at 1 µM [1]: 20.6%
inhibition in vivo at 10 mg/kg [2]: 24.4%

O=C(O)c1ccc2[nH]c(-c3ccc(Cl)cc3)cc(=O)c2c1 [Example 33]
inhibition at 1 µM [1]: 22.5%
inhibition in vivo at 10 mg/kg [2]: 22.3%

COC(=O)c1ccc2[nH]c(-c3ccc(Cl)cc3Cl)cc(=O)c2c1 [Example 34]
inhibition at 1 µM [1]: 19.3%
inhibition in vivo at 10 mg/kg [2]: 17.4%

O=C(O)c1ccc2[nH]c(-c3ccc(Cl)cc3Cl)cc(=O)c2c1 [Example 35]
inhibition at 1 µM [1]: 25.6%
inhibition in vivo at 10 mg/kg [2]: 39.4%

O=C(O)c1ccc2[nH]c(-c3ccc(Cl)cc3Cl)cc(=O)c2c1 [Example 36]
1/1000 mM SRS-A Inhibition Ratio % ([1]; listed as 2,4-Dichloro): 14.5%
PCA Inhibition Ratio % ([2]; listed as 2,4-Dichloro): 20.4%

COC(=O)c1ccc2[nH]c(-c3ccc(Cl)c(Cl)c3)cc(=O)c2c1 [Example 37]
inhibition at 1 µM [1]: 24.3%
inhibition in vivo at 10 mg/kg [2]: 17.1%

O=C(O)c1ccc2[nH]c(-c3cc(Cl)ccc3Cl)cc(=O)c2c1 [Example 40]
inhibition at 1 µM [1]: 27.5%
inhibition in vivo at 10 mg/kg [2]: 25.4%

Cc1ccccc1-c1cc(=O)c2cc(C(=O)O)ccc2[nH]1 [Example 43]
1/1000 mM SRS-A Inhibition Ratio % ([1]; listed as 2-Methyl): 17.3%
PCA Inhibition Ratio % ([2]; listed as 2-Methyl): 24.8%

CCc1ccccc1-c1cc(=O)c2cc(C(=O)OC)ccc2[nH]1 [Example 44]
inhibition at 1 µM [1]: 41.3%
inhibition in vivo at 10 mg/kg [2]: 18%

CCc1ccccc1-c1cc(=O)c2cc(C(=O)O)ccc2[nH]1 [Example 45]
inhibition at 1 µM [1]: 25.4%
inhibition in vivo at 10 mg/kg [2]: 24.2%

COC(=O)c1ccc2[nH]c(-c3ccc(C)cc3)cc(=O)c2c1 [Example 46]
inhibition at 1 µM [1]: 19.8%
inhibition in vivo at 10 mg/kg [2]: 27.3%

Cc1ccc(-c2cc(=O)c3cc(C(=O)O)ccc3[nH]2)cc1 [Example 47]
inhibition at 1 µM [1]: 18.9%
inhibition in vivo at 10 mg/kg [2]: 17.3%

COC(=O)c1ccc2[nH]c(-c3ccc(C(C)C)cc3)cc(=O)c2c1 [Example 48]
inhibition at 1 µM [1]: 24.2%
inhibition in vivo at 10 mg/kg [2]: 26.4%

CC(C)c1ccc(-c2cc(=O)c3cc(C(=O)O)ccc3[nH]2)cc1 [Example 49]
inhibition at 1 µM [1]: 18.8%
inhibition in vivo at 10 mg/kg [2]: 25.2%

CCCCCc1ccc(-c2cc(=O)c3cc(C(=O)OC)ccc3[nH]2)cc1 [Example 50]
inhibition at 1 µM [1]: 36%
inhibition in vivo at 10 mg/kg [2]: 19.4%

CCCCCc1ccc(-c2cc(=O)c3cc(C(=O)O)ccc3[nH]2)cc1 [Example 51]
inhibition at 1 µM [1]: 61.4%
inhibition in vivo at 10 mg/kg [2]: 22.7%

COC(=O)c1ccc2[nH]c(-c3cccc(C(F)(F)F)c3)cc(=O)c2c1 [Example 52]
inhibition at 1 µM [1]: 21.3%
inhibition in vivo at 10 mg/kg [2]: 25%

O=C(O)c1ccc2[nH]c(-c3cccc(C(F)(F)F)c3)cc(=O)c2c1 [Example 53]
inhibition at 1 µM [1]: 30%
inhibition in vivo at 10 mg/kg [2]: 22.4%

COC(=O)c1ccc2[nH]c(-c3ccc(C)cc3C)cc(=O)c2c1 [Example 54]
inhibition at 1 µM [1]: 22.4%
inhibition in vivo at 10 mg/kg [2]: 18.9%

Cc1ccc(-c2cc(=O)c3cc(C(=O)O)ccc3[nH]2)c(C)c1 [Example 55]
inhibition at 1 µM [1]: 17.5%
inhibition in vivo at 10 mg/kg [2]: 16.8%
